By EC50 is commonly meant the concentration at which the effect is half-maximal. By IC50 is commonly meant the midpoint of a concentration-inhibition curve. A low value points to greater potency in that assay.

Our source for the EC50 and IC50 values is patent US20250320213A1, “Nitrogen-Containing Heterocyclic Compounds” (Pfizer Inc., priority 2024, published 2025).

One experiment has as its target T1, STAT6 (Homo sapiens, UniProt P42226).
T1 construct: stably transfected HaCaT keratinocyte cell line, which expresses NanoLuc luciferase reporter gene under the transcriptional control of the STAT6 responsive promoter; endogenous in cells; host or cells: HaCaT keratinocyte reporter cell line (stably transfected with a NanoLuc reporter)
T1 sequence (P42226 1-847): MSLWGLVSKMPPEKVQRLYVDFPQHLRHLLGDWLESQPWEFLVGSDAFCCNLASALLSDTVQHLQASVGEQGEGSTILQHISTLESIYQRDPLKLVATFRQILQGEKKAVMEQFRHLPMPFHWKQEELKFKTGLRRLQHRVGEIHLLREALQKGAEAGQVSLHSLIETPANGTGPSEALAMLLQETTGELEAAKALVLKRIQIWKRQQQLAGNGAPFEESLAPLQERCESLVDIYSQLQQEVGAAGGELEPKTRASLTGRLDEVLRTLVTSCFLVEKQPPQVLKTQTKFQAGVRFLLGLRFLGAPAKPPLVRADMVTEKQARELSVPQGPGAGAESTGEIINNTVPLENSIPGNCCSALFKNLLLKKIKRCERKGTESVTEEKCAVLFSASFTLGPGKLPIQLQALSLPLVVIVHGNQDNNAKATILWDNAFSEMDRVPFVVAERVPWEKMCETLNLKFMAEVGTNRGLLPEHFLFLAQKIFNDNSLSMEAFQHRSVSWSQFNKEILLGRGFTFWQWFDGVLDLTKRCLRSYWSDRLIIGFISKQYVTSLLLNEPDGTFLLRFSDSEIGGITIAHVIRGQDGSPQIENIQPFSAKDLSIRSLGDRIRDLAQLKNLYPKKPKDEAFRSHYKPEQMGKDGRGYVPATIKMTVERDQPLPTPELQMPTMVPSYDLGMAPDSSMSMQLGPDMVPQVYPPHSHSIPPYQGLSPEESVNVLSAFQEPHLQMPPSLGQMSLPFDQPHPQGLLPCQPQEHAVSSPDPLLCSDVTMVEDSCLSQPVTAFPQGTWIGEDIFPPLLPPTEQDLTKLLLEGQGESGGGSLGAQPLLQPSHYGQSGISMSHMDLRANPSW
As to the kind of experiment: STAT6 Reporter Luciferase Assay (IL-13 stimulated HaCaT keratinocyte NanoLuc reporter cells). The experiment is classed as cell-based. In outline: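 IL-13 (0.12 nM, 4 h) stimulated STAT6 reporter activity in HaCaT cells after a 2 h compound pre-incubation; NanoLuc signal was measured.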

In experiment [1] the test system is CCL17 secretion in peripheral human whole blood. As to the kind of experiment: Human Whole Blood (HWB) CCL17 TR-FRET Assay (IL-13 stimulated CCL17 secretion). The class given is cell-based. In a few lines:
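Compounds are titrated (11 points, 3-fold, duplicate) into fresh heparinized human whole blood and held 2 h at 37 °C before IL-13 challenge (10 ng/mL final). After 48 h at 37 °C, serum CCL17 is measured by TR-FRET sandwich assay and IC50 values are calculated.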
In general terms: In TR-FRET formats the signal depends on donor and acceptor labels being close together.

The mark [2] stands for this setting: STAT6 NanoLuc luciferase reporter, IL-13 stimulated HaCaT keratinocyte cells, read-out: Reporter EC50.
Setting [3] is: Homo sapiens, 48 h, inhibition of CCL17 secretion in human whole blood, 10 ng/mL IL13, 48 hours.
Where [4] appears, read: IL-13 stimulated HaCaT STAT6 NanoLuc reporter cells, read-out: Reporter EC50.
Setting [5] is: Homo sapiens, 48 h, human whole blood, IL-13 stimulated.
[6] abbreviates: Homo sapiens, 48 h, human whole blood, 10 ng/mL IL13, 48 hours.
[7] abbreviates: human whole blood, IL-13 stimulated, 48 hours.

Structures can show the parent of a compound that is named as a salt. Where two headings read alike, the source gives them in different places. Where only a bound is given, the exact number is not on record here.

Take `CN(C)C(=O)Nc1ccc(CNC(=O)c2nn(C)c3c2[C@@H]2COC[C@H](C3)N2c2ccc(C(=O)N(C)C)cn2)cc1` (racemic) [Example 72, rac-(4R,8S)-10-(5-(dimethylcarbamoyl)pyridin-2-yl)-N-(4-(3,3-dimethylureido)benzyl)-1-methyl-1,4,5,7,8,9-hexahydro-4,8-epiminooxocino[5,4-c]pyrazole-3-carboxamide]: at STAT6 (setting [2]), the EC50 turned out to be 308 nM. The IC50 in experiment [1] (setting [3]) was found to be 1100 nM.

Regarding `CC(C)n1nc(C(=O)NCc2ccc(NC(=O)N(C)CCO)cc2)c2c1CCN(c1ccc(C(=O)N(C)C)cn1)C2` [Example 180, 5-(5-(dimethylcarbamoyl)pyridin-2-yl)-N-(4-(3-(2-hydroxyethyl)-3-methylureido)benzyl)-1-isopropyl-4,5,6,7-tetrahydro-1H-pyrazolo[4,3-c]pyridine-3-carboxamide], the EC50 on STAT6 (setting [2]) is 18 nM. Moreover, the IC50 in experiment [1] (setting [3]) worked out at 55 nM.

For `CC(C)n1nc(C(=O)NCc2ccc(NC(=O)N(C)C)cc2)c2c1[C@@H](C)CN(c1ncc(C(=O)O)cn1)C2` [Example 498, (S)-2-(3-((4-(3,3-Dimethylureido)benzyl)carbamoyl)-1-isopropyl-7-methyl-1,4,6,7-tetrahydro-5H-pyrazolo[4,3-c]pyridin-5-yl)pyrimidine-5-carboxylic acid], the EC50 at STAT6 (setting [4]) came out at 133 nM. This compound registered an IC50 in experiment [1] (setting [5]) of 3440 nM.

As to `Cc1nn(C)c(=O)n1-c1ccc(CNC(=O)c2nn(C(C)C)c3c2CN(c2ccc(C(=O)N(C)C)cn2)C[C@@H]3C)cc1` [Example 471, (S)-N-(4-(1,3-dimethyl-5-oxo-1,5-dihydro-4H-1,2,4-triazol-4-yl)benzyl)-5-(5-(dimethylcarbamoyl)pyridin-2-yl)-1-isopropyl-7-methyl-4,5,6,7-tetrahydro-1H-pyrazolo[4,3-c]pyridine-3-carboxamide], the EC50 at STAT6 (setting [4]) is 432 nM. The compound also yielded an IC50 in experiment [1] (setting [5]) of 3290 nM.

In the case of `CC(C)n1nc(C(=O)NCc2ccc(NC(=O)N3CCN(C)CC3)cc2)c2c1[C@@H](C)CN(c1ccc(C(=O)N(C)C)cn1)C2` [Example 470, (S)-5-(5-(dimethylcarbamoyl)pyridin-2-yl)-1-isopropyl-7-methyl-N-(4-(4-methylpiperazine-1-carboxamido)benzyl)-4,5,6,7-tetrahydro-1H-pyrazolo[4,3-c]pyridine-3-carboxamide], the EC50 on STAT6 (setting [4]) was found to be 1 nM. For the same compound, the IC50 in experiment [1] (setting [5]) stood at 5 nM.

Regarding `CC(C)n1nc(C(=O)NCc2ccc(NC(=O)N3CCCCC3)cc2)c2c1CCN(c1ccc(C(=O)N(C)C)cn1)C2` [Example 144, 5-(5-(dimethylcarbamoyl)pyridin-2-yl)-1-isopropyl-N-(4-(piperidine-1-carboxamido)benzyl)-4,5,6,7-tetrahydro-1H-pyrazolo[4,3-c]pyridine-3-carboxamide], the half-maximal effective concentration (EC50) at STAT6 (setting [2]) was found to be 7 nM. This compound returned a concentration for half-maximal inhibition (IC50) in experiment [1] (setting [3]) of 292 nM.

Turning to `COC[C@H]1CN(C(=O)Nc2ccc(CNC(=O)c3nn(C(C)C)c4c3CN(c3ccc(C(=O)N(C)C)cc3)C[C@@H]4C)cc2)CCN1` [Example 577, (S)-5-(4-(dimethylcarbamoyl)phenyl)-1-isopropyl-N-(4-((R)-3-(methoxymethyl)piperazine-1-carboxamido)benzyl)-7-methyl-4,5,6,7-tetrahydro-1H-pyrazolo[4,3-c]pyridine-3-carboxamide], on STAT6 (setting [4]), the EC50 amounted to 1 nM. Besides, the midpoint of inhibition in experiment [1] (setting [6]), the IC50, lay at 4 nM.

On to `CC(C)n1nc(C(=O)NCc2ccc(NC(=O)N(C)C)cc2)c2c1CCN(c1ccc(N3C[C@H](C)CC3=O)cn1)C2` [Example 67, (R)-N-(4-(3,3-dimethylureido)benzyl)-1-isopropyl-5-(5-(4-methyl-2-oxopyrrolidin-1-yl)pyridin-2-yl)-4,5,6,7-tetrahydro-1H-pyrazolo[4,3-c]pyridine-3-carboxamide], for which the concentration for a half-maximal effect (EC50) on STAT6 (setting [2]) is 64 nM. 5020 nM corresponded to half-maximal inhibition in experiment [1] (setting [3]) (IC50).

As to `CC(C)n1nc(C(=O)NCc2ccc(NC(=O)N(C)C)cc2)c2c1CCN(c1ccc(N3C(=O)C4CCC3C4)cn1)C2` (stereo not drawn) [Example 109, N-(4-(3,3-dimethylureido)benzyl)-1-isopropyl-5-(5-(3-oxo-2-azabicyclo[2.2.1]heptan-2-yl)pyridin-2-yl)-4,5,6,7-tetrahydro-1H-pyrazolo[4,3-c]pyridine-3-carboxamide], the EC50 on STAT6 (setting [2]) amounted to 117 nM. Also, in experiment [1] (setting [3]), the IC50 is > 30000 nM.

As to `CC(C)c1nc(C(=O)NCc2ccc(NC(=O)N(C)C)cc2)c2n1C(C)CN(c1ccc(C(=O)N(C)C)cc1)C2` (single isomer, unassigned) [Example 539, rel-(R or S)-7-(4-(Dimethylcarbamoyl)phenyl)-N-(4-(3,3-dimethylureido)benzyl)-3-isopropyl-5-methyl-5,6,7,8-tetrahydroimidazo[1,5-a]pyrazine-1-carboxamide], the concentration for a half-maximal effect (EC50) on STAT6 (setting [4]) came out at 13 nM. Further, the IC50 in experiment [1] (human whole blood, 10 ng/mL IL13, 48 hours) is 72 nM.

`CC(C)n1nc(C(=O)NCc2ccc(NC(=O)N3CCCNCC3)c(F)c2)c2c1[C@@H](C)CN(c1ccc(C(=O)N(C)C)cc1)C2` [Example 576, (S)-N-(4-(1,4-diazepane-1-carboxamido)-3-fluorobenzyl)-5-(4-(dimethylcarbamoyl)phenyl)-1-isopropyl-7-methyl-4,5,6,7-tetrahydro-1H-pyrazolo[4,3-c]pyridine-3-carboxamide]: the EC50 on STAT6 (setting [4]) came out at 4 nM. The same compound registered a half-maximal inhibitory concentration (IC50) in experiment [1] (setting [6]) of 19 nM.

For the compound `CCC1Cc2c(c(C(=O)NCc3ccc(NC(=O)N(C)C)cc3)nn2C(C)C)CN1c1ccc(C(=O)N(C)C)cn1` (racemic) [Example 249, rac-(R)-5-(5-(dimethylcarbamoyl)pyridin-2-yl)-N-(4-(3,3-dimethylureido)benzyl)-6-ethyl-1-isopropyl-4,5,6,7-tetrahydro-1H-pyrazolo[4,3-c]pyridine-3-carboxamide], on STAT6 (setting [4]), the EC50 stood at 6 nM. This compound also registered an IC50 in experiment [1] (setting [5]) of 31 nM.

For `CNC(=O)c1ccc(CNC(=O)c2nn(C(C)C)c3c2CN(c2ccc(C(=O)N(C)C)cn2)CC3C(F)(F)F)cc1` (single isomer, unassigned) [Example 357, rel-(R or S)-5-(5-(dimethylcarbamoyl)pyridin-2-yl)-1-isopropyl-N-(4-(methylcarbamoyl)benzyl)-7-(trifluoromethyl)-4,5,6,7-tetrahydro-1H-pyrazolo[4,3-c]pyridine-3-carboxamide], at STAT6 (setting [4]), the EC50 came to 1 nM. Further, in experiment [1] (setting [7]), the IC50 is 20 nM.

For the compound `CC(C)n1nc(C(=O)NCc2ccc(NC(=O)N3CCC(OC4CCNCC4)CC3)cc2)c2c1[C@@H](C)CN(c1ccc(C(=O)N(C)C)cc1)C2` [Example 485, (S)-5-(4-(Dimethylcarbamoyl)phenyl)-1-isopropyl-7-methyl-N-(4-(4-(piperidin-4-yloxy)piperidine-1-carboxamido)benzyl)-4,5,6,7-tetrahydro-1H-pyrazolo[4,3-c]pyridine-3-carboxamide hydrochloride], the EC50 on STAT6 (Reporter EC50, IL-13 stimulated HaCaT STAT6 NanoLuc reporter cells) was determined as 1 nM. This compound also showed an IC50 in experiment [1] (setting [7]) of 4 nM.

Take `COC[C@@H]1CN(C(=O)Nc2ccc(CNC(=O)c3nn(C(C)C)c4c3CN(c3ccc(C(=O)N(C)C)cc3)C[C@@H]4C)cc2)CCN1` [Example 578, (S)-5-(4-(dimethylcarbamoyl)phenyl)-1-isopropyl-N-(4-((S)-3-(methoxymethyl)piperazine-1-carboxamido)benzyl)-7-methyl-4,5,6,7-tetrahydro-1H-pyrazolo[4,3-c]pyridine-3-carboxamide]: the EC50 at STAT6 (setting [4]) is 0.5 nM. In experiment [1] (setting [6]), this compound gave an IC50 of 5 nM.
